This passage reports GI50 and TGI results from PubChem BioAssay (NCI).

For orientation: GI50 means the concentration at which growth is held to half of that of the control. Usually TGI stands for the concentration at which net growth stops. High values mean less potent growth arrest, low ones more potent growth arrest.

SMILES strings stand for the structures. “And” between values parts separate entries of the source, which are not always exact repeats. Equal entries are not always repeated.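 All cell lines were grown in 96-well plates and treated with compound for 48 hours. GI50 marks 50% less growth. At the TGI there is no net growth.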

Experiment in all cases: DTP human tumour cell line panel, 48 h
Assay [1] deals with NCI-H226 lung.
For assay [2], the system named is K-562 leukemia.
For assay [3], the system named is OVCAR-8 ovarian.
Assay [4] deals with CCRF-CEM leukemia.
Assay [5] relates to SNB-75 CNS.
Assay [6] relates to DU-145 prostate.
Assay [7] has as its system NCI-H460 lung.
The test system of assay [8] is KM12 colon.
Assay [9] relates to UO-31 renal.
Assay [10] relates to MOLT-4 leukemia.

On to `Cc1cc([N+](=O)[O-])ccc1NS(=O)(=O)c1cc(Cl)ccc1Cl`, for which the GI50 in assay [1] was 2.87 µM; in assay [2], 3.56 µM; in assay [3], 3.65 µM; in assay [4] it was 3.47 µM; in [5], 2.98 µM; in [6] it was 5.37 µM. In addition, the GI50 in assay [7] is 2.97 µM; in assay [8], 4.04 µM; in [9] it was 2.97 µM; in [10] it was 4.03 µM. Also, the total growth inhibition concentration (TGI) is 14.3 µM in [1]; above 100 µM in assay [2]; above 100 µM in assay [3]; above 72.4 µM in [4]; 38.3 µM in assay [5]; above 100 µM in assay [6]. The total growth inhibition concentration (TGI) in assay [7] was above 43.6 µM; in assay [8], 34.5 µM; in [9], 17 µM; in [10], 20.1 µM.
In the case of `Cc1ccc(C(=O)N2CCN(C(=O)c3ccc(C)cc3)c3ccccc32)cc1`, the TGI in assay [1] was above 79.8 µM; in assay [2], above 100 µM; in [3], above 100 µM; in assay [4] it was above 100 µM; in assay [5], above 100 µM; in assay [6], above 100 µM. Further, the TGI in [7] is above 100 µM; in assay [8] it was above 100 µM; in assay [9], above 56.6 µM; in assay [10], above 46.4 µM.
Consider `O=C(NCCN1CCC(O)CC1)c1cc2c(o1)C(=O)c1ccccc1C2=O`, for which the GI50 in [1] was 0.214 µM; in [2], 0.378 µM; in assay [3], 0.322 µM; in [4], 0.578 µM; in [5] it was 0.323 µM; in assay [6] it was 0.179 µM. In addition, the GI50 was 0.192 µM in [7], 0.481 µM in [8], 0.666 µM in [9] and 0.383 µM in assay [10]. Moreover, the total growth inhibition concentration (TGI) is 0.492 µM in assay [1]; 1.41 µM in assay [3]; above 30.1 µM in [4]; 0.797 µM in assay [5]; 0.325 µM in assay [6]; 0.39 µM in assay [7]. For the same compound, the TGI stood at 1.87 µM in assay [8], 1.84 µM in assay [9] and 1.74 µM in assay [10].
For the compound `CCOC(=O)NC1=C(N2CC2)C(=O)C(NC(=O)OCC)=C(N2CC2)C1=O`, the GI50 in assay [1] was 18 µM and 11 µM; in assay [2] it was 6.13 µM; in assay [3] it was 4.71 µM; in [4], 3.47 µM and 1.88 µM; in assay [5], 9.24 µM; in assay [7], 0.505 µM and 0.721 µM. Further, the GI50 is 16.7 µM in assay [8]; 11.1 µM and 4 µM in [9]; 3.25 µM in [10]. The total growth inhibition concentration (TGI) in assay [1] was 25 µM and 20 µM and 43 µM; in assay [2] it was 20.8 µM and 38.3 µM and 17 µM; in assay [3], 14.3 µM and 14.5 µM; in assay [4], 9.8 µM and 16.1 µM and 12.1 µM; in assay [5] it was 23.2 µM and 29.9 µM and 52 µM; in [6], 25 µM. Moreover, the TGI is 20 µM and 16.2 µM and 31 µM in [7]; 25 µM and 35.3 µM in [8]; 25 µM and 21.7 µM and 22.4 µM in assay [9]; 12.6 µM and 11 µM in assay [10].
`CCOc1ccc2nc(-c3cccc(OCC(=O)NC(C)C)c3)nc(Nc3ccc(-c4cn[nH]c4)cc3)c2c1`: the GI50 in [1] is 0.783 µM; in assay [2], 0.454 µM; in assay [3], 0.586 µM; in assay [4], 0.315 µM; in [5] it was 1.16 µM; in assay [6], 0.403 µM. In addition, the GI50 is 0.34 µM in assay [7], 0.527 µM in [8], 0.344 µM in [9] and 0.319 µM in [10]. In addition, the concentration for total growth inhibition (TGI) was 3.19 µM in assay [1]; 4.76 µM in [3]; above 51.6 µM in [4]; 2.48 µM in assay [5]; 2.91 µM in assay [6]; 1.66 µM in assay [7]. Besides, the concentration for total growth inhibition (TGI) is 6.9 µM in assay [8], 3.51 µM in [9] and above 31.9 µM in assay [10].
With `C[n+]1c2ccccc2c(Nc2ccc(NS(=O)(=O)CCCCN=C(N)N)cc2)c2ccc(N)cc21`, the concentration for 50% growth inhibition (GI50) in [1] was 0.128 µM; in assay [2], 2.6 µM; in assay [3], 2.48 µM; in assay [4], 0.303 µM; in [5], 1.48 µM; in assay [6], 0.163 µM. In addition, the GI50 was 3.5 µM in [8], 6.5 µM in assay [9] and 0.0212 µM in assay [10]. For the same compound, the TGI in assay [1] is 31.2 µM; in assay [2] it was above 100 µM; in [3], above 100 µM; in assay [4] it was above 35.9 µM; in [5], above 100 µM; in assay [6] it was 66.4 µM. Further, the TGI was 12.1 µM in assay [7], above 79.1 µM in assay [8] and above 100 µM in assay [9].
In the case of `Fc1cccc(CSc2ncnc3c2ncn3C2CCCS2)c1` (stereo not given), the TGI is 61.4 µM in [1]; 84.2 µM in assay [2]; 75.7 µM in [3]; 46.6 µM in assay [4]; 65.6 µM in assay [5]; 50.4 µM in assay [6]. Besides, the TGI in assay [7] is 22.7 µM; in [8], 38.9 µM; in assay [9], 36.2 µM; in assay [10], 24 µM.
For the compound `CC(=O)OCc1ccc(O)c(C=O)c1`, the total growth inhibition concentration (TGI) in [1], in [2], in assay [3], in [4], in [5] and in assay [6] was above 100 µM throughout. Moreover, the total growth inhibition concentration (TGI) in assay [7], in assay [8], in [9] and in [10] was above 100 µM in each case.
On to `CC1(C)N=C(N)N=C(N)N1c1ccc(CCc2ccc(Cl)cc2S(=O)(=O)F)c(Cl)c1`, for which the GI50 in assay [1] is 17.9 µM; in [2], 6.81 µM; in assay [3], 7.2 µM; in assay [4], 6.73 µM; in assay [5], 8.44 µM; in assay [6] it was 5.91 µM. Moreover, the GI50 in [7] is 3.12 µM; in assay [8], 4.63 µM; in assay [9] it was above 100 µM; in assay [10], 11.5 µM. Moreover, the TGI is 44.3 µM in [1]; above 100 µM in assay [2]; 69.1 µM in assay [3]; 44.4 µM in [4]; 27.3 µM in assay [5]; above 100 µM in assay [6]. Besides, the total growth inhibition concentration (TGI) in [7] was above 100 µM; in [8], 17.6 µM; in assay [9] it was above 100 µM; in assay [10] it was 73.6 µM.
